In assay [1] the test system is RKN cells (KRAS G12V). As to the kind of experiment: Cell-based pERK HTRF assay in RKN cells (Biological Example 5). The procedure, abridged:
(§1)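 Cells seeded at 2.5×10^4/well in 10% FBS medium overnight, then treated 2 h at 37 °C with a 9-point, 3-fold compound series (0.25% DMSO). Lysates read by HTRF for pERK1/2 (Thr202/Tyr204), 665/620 nm ratio; EC50 from four-parameter fit.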
In general terms: In TR-FRET formats the signal depends on donor and acceptor labels being close together.

The test system of assay [2] is MKN1 cells (KRAS amplification). As to the kind of experiment: Cell-based pERK HTRF assay in MKN1 cells (Biological Example 5). The settings on record: Homo sapiens, MKN-1, MKN cells (MKN1, KRAS amplification). The procedure, abridged:
as §1

Assay [3] has as its system HCT116 cells (KRAS G13D). As to the kind of experiment: 3D Cell viability assay in HCT116 cells (Biological Example 6). Type of assay: cell-based. The settings on record: Homo sapiens, HCT-116; HCT116 (KRAS G13D) spheroids, 72 hours. The procedure, abridged: (§2)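 Tumour spheroids, grown 48 h from 1000 seeded cells in ultra-low attachment wells, receive compound at nine three-fold-spaced concentrations (final DMSO 0.25%) for 72 h at 37 °C, 5% CO2. Viability is measured by luminescence after CTG 3D lysis.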

The test system of assay [4] is Capan-2 cells (KRAS G12V). As to the kind of experiment: 3D Cell viability assay in Capan-2 cells (Biological Example 6). Type of assay: cell-based. The settings on record: Homo sapiens; Capan-2 (KRAS G12V) spheroids, 72 hours. A digest of the protocol: as §2
In assay [5] the test system is H1573 cells (KRAS G12A). The experiment in a line: Cell-based pERK HTRF assay in H1573 cells (Biological Example 5). The settings on record: Homo sapiens, NCI-H1573. A digest of the protocol: as §1
Assay [6] relates to A549 cells (KRAS G12S). As to the kind of experiment: 3D Cell viability assay in A549 cells (Biological Example 6). Type of assay: cell-based. The settings on record: Homo sapiens; A549 (KRAS G12S) spheroids, 72 hours. The procedure, abridged: as §2
Assay [7] relates to AsPC-1 cells (KRAS G12D). As to the kind of experiment: Cell-based pERK HTRF assay in AsPC-1 cells (Biological Example 5). To be noted: Homo sapiens, ASPC1, AsPC-1 (KRAS G12D) cells. A digest of the protocol:
as §1

The test system of assay [8] is Capan-2 cells (KRAS G12V). The experiment in a line: Cell-based pERK HTRF assay in Capan-2 cells (Biological Example 5). The settings on record: Homo sapiens, Capan-2, Capan-2 (KRAS G12V) cells. The procedure, abridged: as §1
The subject of assay [9] is SW1900 cells (KRAS G12D). The experiment in a line: 3D Cell viability assay in SW1900 cells (Biological Example 6). Type of assay: cell-based. The settings on record: Homo sapiens; SW1990 (text: SW1900, KRAS G12D) spheroids, 72 hours. A digest of the protocol:
as §2

The test system of assay [10] is KP-2 cells (KRAS G12R). The experiment in a line: Cell-based pERK HTRF assay in KP-2 cells (Biological Example 5). To be noted: KP-2 (KRAS G12R) cells. The protocol:
Biological Example 5: Cell-based PERK HTRF assay in AsPC-1, SW1900, HPAC, Capan-2, RKN, H358, HCT116, KP-2, H1573, A549, MKN1, and HT1080 cells
The inhibition of ERK phosphorylation, as measured using the HTRF Advanced Phospho-ERK 1/2 (Thr202/Tyr204) Detection Assay kit (Perkin Elmer), was used to determine the effectiveness of test compounds in disrupting KRAS-driven protein/effector signaling in cells.
On day 1, cells were seeded into 96-well plates at 2.5×10^4 cells/well in 100 μL of complete growth media supplemented with 10% fetal bovine serum (FBS) and incubated at 37° C., in the presence of 5% CO2.
On day 2, cells were treated with compounds diluted in DMSO at 0.25% final DMSO concentration. Compounds were dosed in a 9-point concentration curve with three-fold dilution between concentrations. Cells were incubated in the presence of compound for two hours at 37° C. Following this treatment period, cells were harvested by aspirating the media, adding 40 μL of kit-supplied 1x lysis buffer per well, and shaking for 30 minutes at 250 rpm at room temperature.
Following cell lysis, samples were homogenized by pipetting up and down twenty times and 16 μL of cell lysate per well was transferred from the 96-well cell culture plate to two wells of a 384-well detection plate. A complete detection buffer was prepared by diluting D2 and Eu Cryptate antibodies 1:20 in kit-provided detection solution, 4 μL of complete detection buffer was then added to each well with lysate. Plates were incubated with gentle rocking for 24 hours at 4° C.
Following this incubation period, plates were centrifuged at 500×g for one minute and analyzed on a CLARIOstar plate reader. Data was imported into Microsoft Excel and the signal from the 665 nm channel was divided by the signal from the 620 nm channel. % pERK was calculated as: […]
Data was imported to the Prism software package (Graphpad) and EC50 values were calculated using the log (inhibitor) vs, response—variable slopc (Four parameters) model.

Assay [11] deals with HT1080 cells (NRAS). The experiment in a line: 3D Cell viability assay in HT1080 cells (Biological Example 6). To be noted: Homo sapiens, HT-1080; HT1080 (NRAS) spheroids, 72 hours. Type of assay: cell-based. A digest of the protocol:
as §2

The test system of assay [12] is H1573 cells (KRAS G12A). As to the kind of experiment: 3D Cell viability assay in H1573 cells (Biological Example 6). Type of assay: cell-based. The settings on record: Homo sapiens, NCI-H1573; H1573 (KRAS G12A) spheroids, 72 hours. The procedure, abridged: as §2
Assay [13] relates to A549 cells (KRAS G12S). The experiment in a line: Cell-based pERK HTRF assay in A549 cells (Biological Example 5). The settings on record: Homo sapiens. A digest of the protocol:
as §1

For assay [14], the system named is HT1080 cells (NRAS). The experiment in a line: Cell-based pERK HTRF assay in HT1080 cells (Biological Example 5). To be noted: Homo sapiens, HT-1080. A digest of the protocol:
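Overnight-plated cells (2.5×10^4/well, 10% FBS); 2 h compound, 9-pt 3-fold curve, 0.25% DMSO, 37° C; lysis 30 min RT; Eu cryptate/D2 anti-pERK (T202/Y204) detection 24 h, 4° C; 665/620 ratio → % pERK → 4-PL EC50.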

Assay [15] has as its system HPAC cells (KRAS G12D). As to the kind of experiment: 3D Cell viability assay in HPAC cells (Biological Example 6). Type of assay: cell-based. The settings on record: Homo sapiens, HPAC, 72 h, HPAC (KRAS G12D) spheroids. The procedure, abridged:
as §2

The test system of assay [16] is HCT116 cells (KRAS G13D). As to the kind of experiment: Cell-based pERK HTRF assay in HCT116 cells (Biological Example 5). The settings on record: Homo sapiens, HCT-116. The procedure, abridged:
as §1

For assay [17], the system named is RKN cells (KRAS G12V). The experiment in a line: 3D Cell viability assay in RKN cells (Biological Example 6). Type of assay: cell-based. The settings on record: RKN (KRAS G12V) spheroids, 72 hours. The procedure, abridged: as §2
In assay [18] the test system is SW1900 cells (KRAS G12D). As to the kind of experiment: Cell-based pERK HTRF assay in SW1900 cells (Biological Example 5). The settings on record: Homo sapiens, SW1990, SW1990 cells (text: SW1900, KRAS G12D). The procedure, abridged:
as §1

In general, IC50 refers to the concentration that gives 50% inhibition. A higher IC50 goes with lower potency.

As to `CCC(=O)N1C[C@@H](N(CC)c2nc(OC[C@@]34CCCN3C[C@H](F)C4)nc3c(F)c(-c4ccc(F)c5sc(N)c(C#N)c45)c(C(F)(F)F)cc23)C[C@H]1C` [Compound 442], the IC50 in assay [1] was at most 100 nM; in assay [2] it was at most 100 nM; in [3] it was 100 to 1000 nM; in [4], at most 100 nM; in assay [5], 100 to 1000 nM; in [6] it was 100 to 1000 nM. Moreover, the concentration for half-maximal inhibition (IC50) in assay [7] was 100 to 1000 nM; in assay [8], at most 100 nM; in assay [9], at most 100 nM; in [10], 100 to 1000 nM; in assay [11] it was over 1000 nM; in assay [12], 100 to 1000 nM. The half-maximal inhibitory concentration (IC50) in [13] is 100 to 1000 nM; in assay [14] it was over 1000 nM; in assay [15], 100 to 1000 nM; in [16], at most 100 nM; in assay [17], at most 100 nM; in [18] it was at most 100 nM.

These data come from US20260042764A1, “COMPOSITIONS AND METHODS FOR INHIBITION OF KRAS” (TheRas, Inc., priority 2022, published 2026).
